How the values were obtained:
[1] = Inhibition of IL-2 stimulated IFN-gamma production in BALB/c mouse at 40 mg/kg, po pretreated for 30 mins followed by IL-2 stimulation and measured after 4 hrs by ELISA; assay type: functional; details: time 4.5 hrs
[2] = target: Tyrosine-protein kinase SYK (Homo sapiens, UniProt P43405); assay: Inhibition of SYK (unknown origin) assessed as reduction of IgM-stimulated ERK phosphorylation by Cell-based assay
[3] = target: Tyrosine-protein kinase JAK2 (Homo sapiens, UniProt O60674); assay: Inhibition of JAK2 signaling pathway in human CHEP cells assessed as inhibition of EPO-induced cell survival preincubated for 1 hr followed by EPO addition and measured after 48 hrs by CellTiter-Glo luminescent assay; assay type: toxicity, cell-based
Chain of Tyrosine-protein kinase JAK2 (O60674 whole entry): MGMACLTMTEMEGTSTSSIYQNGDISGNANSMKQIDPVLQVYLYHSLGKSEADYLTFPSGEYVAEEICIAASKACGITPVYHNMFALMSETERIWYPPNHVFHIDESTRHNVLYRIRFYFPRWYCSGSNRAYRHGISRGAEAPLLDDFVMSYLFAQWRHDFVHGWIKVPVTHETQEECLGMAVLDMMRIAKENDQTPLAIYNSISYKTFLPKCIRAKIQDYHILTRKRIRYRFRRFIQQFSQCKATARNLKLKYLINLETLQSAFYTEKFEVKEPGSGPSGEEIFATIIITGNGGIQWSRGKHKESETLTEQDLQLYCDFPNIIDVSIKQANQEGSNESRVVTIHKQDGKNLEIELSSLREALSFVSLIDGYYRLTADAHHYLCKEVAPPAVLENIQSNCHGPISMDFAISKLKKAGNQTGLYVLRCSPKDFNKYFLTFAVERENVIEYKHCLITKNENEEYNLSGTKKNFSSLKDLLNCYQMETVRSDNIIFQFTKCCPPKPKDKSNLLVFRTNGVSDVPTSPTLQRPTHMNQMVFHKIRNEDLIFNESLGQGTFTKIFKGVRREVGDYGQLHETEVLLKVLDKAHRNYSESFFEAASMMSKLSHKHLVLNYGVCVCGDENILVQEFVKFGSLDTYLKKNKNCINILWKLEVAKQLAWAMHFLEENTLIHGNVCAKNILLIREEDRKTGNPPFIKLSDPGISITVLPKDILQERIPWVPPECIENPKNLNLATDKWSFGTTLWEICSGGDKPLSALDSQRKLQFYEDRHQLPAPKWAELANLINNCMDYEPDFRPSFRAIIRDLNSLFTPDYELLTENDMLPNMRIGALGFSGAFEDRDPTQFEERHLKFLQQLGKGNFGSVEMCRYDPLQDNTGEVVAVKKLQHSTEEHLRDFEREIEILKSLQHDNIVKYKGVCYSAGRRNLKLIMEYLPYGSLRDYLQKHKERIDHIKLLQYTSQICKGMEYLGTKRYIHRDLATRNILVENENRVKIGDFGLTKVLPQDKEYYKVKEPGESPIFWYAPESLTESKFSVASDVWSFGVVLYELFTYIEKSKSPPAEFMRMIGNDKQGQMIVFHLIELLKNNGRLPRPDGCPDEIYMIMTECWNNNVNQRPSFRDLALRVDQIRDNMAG

Cytochrome P450 3A4 [4] = target: T1, Cytochrome P450 3A4 (Homo sapiens, UniProt P08684); assay: Inhibition of CYP3A4 (unknown origin) in absence of NADPH; assay type: ADME
T1 sequence (P08684 whole entry): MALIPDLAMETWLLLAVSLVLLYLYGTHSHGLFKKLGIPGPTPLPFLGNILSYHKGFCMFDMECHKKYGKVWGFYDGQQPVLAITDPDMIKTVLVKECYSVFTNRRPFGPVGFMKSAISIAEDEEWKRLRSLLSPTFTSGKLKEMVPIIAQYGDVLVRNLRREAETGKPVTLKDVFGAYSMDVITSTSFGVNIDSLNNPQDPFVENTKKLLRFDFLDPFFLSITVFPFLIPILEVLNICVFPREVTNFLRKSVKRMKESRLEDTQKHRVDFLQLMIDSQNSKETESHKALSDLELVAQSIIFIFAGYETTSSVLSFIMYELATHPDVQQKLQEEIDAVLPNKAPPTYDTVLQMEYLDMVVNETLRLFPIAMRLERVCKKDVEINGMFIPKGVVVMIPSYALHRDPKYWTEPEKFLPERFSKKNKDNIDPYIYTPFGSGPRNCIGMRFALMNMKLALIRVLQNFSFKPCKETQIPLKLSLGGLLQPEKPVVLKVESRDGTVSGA

Cytochrome P450 3A4 [5] = target: T1, Cytochrome P450 3A4; assay: Inhibition of CYP3A4 (unknown origin) in presence of NADPH; assay type: ADME
JAK3/JAK1 = JAK3/JAK1 (Homo sapiens, UniProt P23458+P52333); assay: Inhibition of JAK1/JAK3 in human primary T-cells assessed as reduction of IL-2 stimulated STAT5 phosphorylation preincubated for 1 hr followed by IL-2 stimulation for 15 mins by FACS method; assay type: cell-based, T-cell
Chain of JAK3/JAK1 (P52333 whole entry): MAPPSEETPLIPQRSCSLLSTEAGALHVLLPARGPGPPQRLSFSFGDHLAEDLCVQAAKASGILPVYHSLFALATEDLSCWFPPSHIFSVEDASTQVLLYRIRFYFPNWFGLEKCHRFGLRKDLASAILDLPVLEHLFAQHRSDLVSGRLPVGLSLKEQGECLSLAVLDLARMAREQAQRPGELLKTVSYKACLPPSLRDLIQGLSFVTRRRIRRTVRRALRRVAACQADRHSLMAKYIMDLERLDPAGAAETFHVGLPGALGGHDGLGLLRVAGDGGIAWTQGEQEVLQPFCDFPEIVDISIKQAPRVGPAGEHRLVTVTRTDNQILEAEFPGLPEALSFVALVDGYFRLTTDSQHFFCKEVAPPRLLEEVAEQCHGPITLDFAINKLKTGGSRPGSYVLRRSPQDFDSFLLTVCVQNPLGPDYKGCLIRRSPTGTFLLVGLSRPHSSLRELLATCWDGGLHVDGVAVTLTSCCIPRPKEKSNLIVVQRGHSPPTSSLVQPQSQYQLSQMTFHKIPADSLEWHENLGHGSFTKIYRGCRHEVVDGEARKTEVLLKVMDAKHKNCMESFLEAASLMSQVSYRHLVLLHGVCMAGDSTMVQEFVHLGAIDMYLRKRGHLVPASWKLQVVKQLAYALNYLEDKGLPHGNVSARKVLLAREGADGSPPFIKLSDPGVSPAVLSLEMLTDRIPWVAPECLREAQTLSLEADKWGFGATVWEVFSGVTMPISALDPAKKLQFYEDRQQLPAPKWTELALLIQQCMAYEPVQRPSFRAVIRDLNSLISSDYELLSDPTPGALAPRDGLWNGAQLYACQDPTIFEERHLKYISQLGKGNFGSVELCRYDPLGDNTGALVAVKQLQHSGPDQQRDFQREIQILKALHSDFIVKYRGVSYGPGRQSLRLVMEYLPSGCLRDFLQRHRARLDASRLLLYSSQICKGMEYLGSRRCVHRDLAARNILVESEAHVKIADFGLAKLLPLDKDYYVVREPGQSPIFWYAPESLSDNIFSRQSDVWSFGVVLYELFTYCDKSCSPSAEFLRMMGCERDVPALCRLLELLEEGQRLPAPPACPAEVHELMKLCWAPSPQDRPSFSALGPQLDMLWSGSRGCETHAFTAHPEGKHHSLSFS
Chain of JAK3/JAK1 (P23458 whole entry): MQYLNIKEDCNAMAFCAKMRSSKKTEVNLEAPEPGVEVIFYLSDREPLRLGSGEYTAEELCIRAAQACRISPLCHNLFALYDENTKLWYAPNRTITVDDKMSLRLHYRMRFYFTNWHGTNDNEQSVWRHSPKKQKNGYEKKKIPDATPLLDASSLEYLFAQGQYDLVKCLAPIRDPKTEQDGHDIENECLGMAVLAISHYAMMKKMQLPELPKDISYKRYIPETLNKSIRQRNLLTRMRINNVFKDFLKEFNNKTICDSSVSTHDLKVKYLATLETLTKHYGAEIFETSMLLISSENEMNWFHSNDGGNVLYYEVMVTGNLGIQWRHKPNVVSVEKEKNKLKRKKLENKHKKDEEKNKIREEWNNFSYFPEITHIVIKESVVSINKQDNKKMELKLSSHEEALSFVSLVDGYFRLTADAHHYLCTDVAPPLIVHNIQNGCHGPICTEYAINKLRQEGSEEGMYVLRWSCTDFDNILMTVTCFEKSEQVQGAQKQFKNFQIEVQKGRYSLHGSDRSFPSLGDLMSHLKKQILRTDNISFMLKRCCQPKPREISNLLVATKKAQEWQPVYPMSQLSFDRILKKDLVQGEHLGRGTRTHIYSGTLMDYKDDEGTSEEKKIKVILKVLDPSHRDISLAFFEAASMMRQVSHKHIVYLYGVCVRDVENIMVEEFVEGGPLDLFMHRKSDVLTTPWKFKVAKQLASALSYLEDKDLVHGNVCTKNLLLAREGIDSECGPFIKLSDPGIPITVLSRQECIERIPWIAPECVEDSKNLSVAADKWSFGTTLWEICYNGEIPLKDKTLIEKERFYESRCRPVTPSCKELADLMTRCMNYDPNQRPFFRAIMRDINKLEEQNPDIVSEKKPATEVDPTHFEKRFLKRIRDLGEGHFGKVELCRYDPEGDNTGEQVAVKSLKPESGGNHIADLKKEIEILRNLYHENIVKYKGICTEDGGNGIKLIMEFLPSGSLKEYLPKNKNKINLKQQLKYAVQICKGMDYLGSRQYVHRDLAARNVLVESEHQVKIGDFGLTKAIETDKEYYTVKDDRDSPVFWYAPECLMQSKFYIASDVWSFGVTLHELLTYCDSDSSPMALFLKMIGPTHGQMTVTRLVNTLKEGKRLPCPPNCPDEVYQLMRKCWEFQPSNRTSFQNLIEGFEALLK

[6] = Oral bioavailability in Sprague-Dawley rat 5 mg/kg; assay type: ADME, organism-based; details: in vivo
[7] = Inhibition of IL-2 stimulated IFN-gamma production in BALB/c mouse at 5 mg/kg, po pretreated for 30 mins followed by IL-2 stimulation and measured after 4 hrs by ELISA; assay type: functional; details: time 4.5 hrs

| SMILES | inhibition in vivo at 40 mg/kg [1] [%] | IC50 [3] [µM] | other results |
| --- | --- | --- | --- |
| Cc1cnc(Nc2cccc(NS(C)(=O)=O)c2)nc1Nc1ccc2oc(=O)[nH]c2c1 | 15 | – | – |
| Cc1cnc(Nc2cccc(S(N)(=O)=O)c2)nc1Nc1ccc2oc(=O)[nH]c2c1 | 30 | – | IC50 [2]: 5 µM |
| COc1cc(Nc2ncc(C)c(Nc3ccc4oc(=O)[nH]c4c3)n2)cc(OC)c1 | – | 0.132 | – |
| COc1ccc(Nc2ncc(C)c(Nc3ccc4oc(=O)[nH]c4c3)n2)cc1C(F)(F)F | 32 | 1.98 | IC50 (Cytochrome P450 3A4 [4]): 4.8 µM; IC50 (Cytochrome P450 3A4 [5]): 0.4 µM |
| Cc1cnc(Nc2cccc(S(N)(=O)=O)c2)nc1Nc1ccc2c(c1)NC(=O)CO2 | – | – | IC50 [2]: 0.7 µM |
| Cc1cnc(Nc2ccc(N3CCOCC3)nc2)nc1Nc1ccc2oc(=O)[nH]c2c1 | 36 | – | IC50 (JAK3/JAK1): 0.022 µM; bioavailability [6]: < 1% |
| COc1cc(Nc2ncc(C)c(Nc3ccc4oc(=O)[nH]c4c3)n2)cc(C(F)F)c1 | 92 | 0.173 | inhibition in vivo at 5 mg/kg [7]: 66%; IC50 (Cytochrome P450 3A4 [4]): > 10 µM; IC50 (Cytochrome P450 3A4 [5]): 3 µM |
| Cc1cnc(Nc2cccc(C#N)c2)nc1Nc1ccc2oc(=O)[nH]c2c1 | 1 | – | – |
| Cc1cnc(Nc2ccc(NS(C)(=O)=O)cc2)nc1Nc1ccc2oc(=O)[nH]c2c1 | 8 | – | – |
| Cc1cnc(Nc2cccc(S(C)(=O)=O)c2)nc1Nc1ccc2oc(=O)[nH]c2c1 | 56 | – | – |
| Cc1cnc(Nc2ccc(F)c(C(F)(F)F)c2)nc1Nc1ccc2oc(=O)[nH]c2c1 | – | 0.503 | IC50 (Cytochrome P450 3A4 [4]): > 10 µM; IC50 (Cytochrome P450 3A4 [5]): 0.7 µM |
